From patent US11833178B2, “Bifidobacterium longum for treating obesity and weight management” (priority 2017, dated 2023) come the findings set out here.

Each structure is given as a SMILES string. Values after ≈ are worked out from the molar mass of the structure shown.

The first experiment relates to Bifidobacterium longum APC1472. Kind of experiment: Antibiotic susceptibility (VetMIC plates, ISO 10932:2010). To be noted: APC1472, 48 h, read-out: MICs. The class given is cell-based, Bifidobacterium longum ssp. longum. Here is the method:
Antibiotic susceptibility was tested with […] plates Lact-1 and Lact-2 supplied from SVA (National Veterinary Institute, Uppsala, Sweden). […] MICs were determined as 80% or more reduction in pellet, compared to positive control lane. Borderline cases were interpreted by visual examples from “Methods for Antimicrobial Susceptibility Testing of Anaerobic Bacteria: Approved Standard” (CLSI, 7th edition).
With `CN[C@H](CC(C)C)C(=O)N[C@H]1C(=O)N[C@@H](CC(N)=O)C(=O)N[C@H]2C(=O)N[C@H]3C(=O)N[C@H](C(=O)N[C@H](C(=O)O)c4cc(O)cc(O)c4-c4cc3ccc4O)[C@H](O)c3ccc(c(Cl)c3)Oc3cc2cc(c3O[C@@H]2O[C@H](CO)[C@@H](O)[C@H](O)[C@H]2O[C@H]2C[C@](C)(N)[C@H](O)[C@H](C)O2)Oc2ccc(cc2Cl)[C@H]1O` [Va, Vancomycin], the MIC was 0.5 µg/mL (≈ 0.345 µM).

Still in this experiment, the particulars now being: APC1472, range of MICs for duplicate experiments, 37° C., 48 h, read-out: MICs.
On to `CC1(C)S[C@@H]2[C@H](NC(=O)[C@H](N)c3ccccc3)C(=O)N2[C@H]1C(=O)O` [Am, Ampicillin], for which the MIC turned out to be 2 µg/mL (≈ 5.72 µM).

For the compound `[H]/N=C(/N)N[C@H]1[C@H](O)[C@@H](O)[C@H](O[C@@H]2O[C@@H](C)[C@](O)(C=O)[C@H]2O[C@@H]2O[C@@H](CO)[C@H](O)[C@@H](O)[C@@H]2NC)[C@@H](N/C(N)=N\[H])[C@@H]1O` [Sm, Streptomycin], the MIC was in the range of 64 to 128 µg/mL (≈ 110 to 220 µM).

Take `O=C(N[C@H](CO)[C@H](O)c1ccc([N+](=O)[O-])cc1)C(Cl)Cl` [Cm, Chloramphenicol]: the MIC turned out to be 2 µg/mL (≈ 6.19 µM).

For the compound `CN(C)[C@@H]1C(O)=C(C(N)=O)C(=O)[C@@]2(O)C(O)=C3C(=O)c4c(O)cccc4[C@@](C)(O)[C@H]3C[C@@H]12` [Tc, Tetracycline], the MIC came out at 1 µg/mL (≈ 2.25 µM).

On to `CC[C@H]1OC(=O)[C@H](C)[C@@H](O[C@H]2C[C@@](C)(OC)[C@@H](O)[C@H](C)O2)[C@H](C)[C@@H](O[C@@H]2O[C@H](C)C[C@H](N(C)C)[C@H]2O)[C@](C)(O)C[C@@H](C)C(=O)[C@H](C)[C@@H](O)[C@]1(C)O` [Em, Erythromycin], for which the MIC was in the range of 0.06 to 0.12 µg/mL (≈ 0.0818 to 0.164 µM).
